Assay results from article PMC10247784, “Physiological activation of human and mouse bitter taste receptors by bile acids” (Communications Biology, 2023).

Target: T1, mouse Tas2r144 (Mus musculus, UniProt Q7TQB8)
T1 construct: expressed in transfected cells; host or cells: HEK293T-Gα16gust44
Assay: Calcium imaging assay (FLIPR), HEK293T-Gα16gust44 cells transfected with mouse Tas2r144
Format: cell-based
Conditions: for Δ F/F: Tas2r144
Method: This set of bile acids was chosen because of their commercial availability in high purities, their diversity within the class of bile acids and their previous detection and quantitation in human blood. Stock solutions were prepared in DMSO.
As basal growth medium for the HEK293T-Gα16gust44 cell line[17],[59] served Dulbecco’s modified eagle medium (DMEM) (Thermo Fisher Scientific, Darmstadt, Germany) supplemented with 10 % fetal bovine serum (Sigma-Aldrich, Steinheim, Germany), 2 mM L-glutamine (Sigma-Aldrich, Steinheim, Germany), 100 units/ml penicillin (Sigma Aldrich, Steinheim, Germany) and 100 µg/ml streptomycin (Sigma Aldrich, Steinheim, Germany). Growth conditions were 37 °C, 5 % CO2 and saturated air-humidity[60].
HEK293T-Gα16gust44 cells were seeded on poly-D-lysine (10 µg/ml) coated 96-well plates to reach a confluence of 40-60 % the next day. For transient transfection 150 ng of plasmid DNA containing the receptor of interest and 0.3 µl lipofectamine 2000 (Thermo Fisher Scientific, Darmstadt, Germany) per well were used and transfection took place according to the manual of lipofectamine 2000. […] The empty vector DNA (mock) was transfected as negative control[14],[41].
Cells were loaded using the calcium-sensitive fluorescent dye Fluo-4-AM (Abcam, Cambridge, Great Britain) in the presence of 2.5 mM probenecid (Sigma-Aldrich, Steinheim, Germany) the day after transfection[13],[41]. 1 h after loading, cells were washed with C1 buffer using a BioTek Cell Washer, incubated in the dark for half an hour and washed again. For automated agonist application and measurement of fluorescence changes, a FLIPR^TETRA device (Molecular Devices, San José, United States) was used. Viability of cells was tested by application of 100 nM Somatostatin 14 (Bachem, Bubendorf, Switzerland)[42].
Measured data were negative control corrected by subtracting the signal of the mock-transfected cells and exported to Microsoft Excel using the FLIPR software ScreenWorks 4.2. In Microsoft Excel software, standardization of maximum fluorescence intensities to the basal fluorescence and normalization to the buffer-only control was done to calculate the relative fluorescence changes (ΔF/F).
Initial screening experiments performed in duplicate wells were confirmed by at least one replication and representative traces were selected for display. All dose-response relationships were determined by three independent experiments (biological replicates) performed in duplicates (technical replicates). Threshold concentrations, defined as lowest substance concentrations leading to statistically significant elevated fluorescence changes in receptor-transfected cells compared with empty vector-transfected cells, were determined using SigmaPlot with Student’s t-test to evaluate statistical significance (p < 0.01).

T1 sequence (Q7TQB8 whole entry): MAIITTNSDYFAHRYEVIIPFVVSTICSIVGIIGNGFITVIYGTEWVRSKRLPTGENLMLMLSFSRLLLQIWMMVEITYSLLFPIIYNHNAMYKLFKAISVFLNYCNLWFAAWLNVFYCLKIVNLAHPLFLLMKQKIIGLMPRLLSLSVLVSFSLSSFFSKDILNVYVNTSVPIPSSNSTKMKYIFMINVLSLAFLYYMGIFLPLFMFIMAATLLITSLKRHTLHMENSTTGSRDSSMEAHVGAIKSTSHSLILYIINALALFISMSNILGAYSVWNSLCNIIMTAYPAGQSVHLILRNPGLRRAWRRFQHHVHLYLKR

Δ F/F (conc. 0,01 mM): 0.007151
Δ F/F (conc. 0,1 mM): 0.04043
Δ F/F (conc. 0,03 mM): 0.015
Δ F/F (conc. 0,3 mM): 0.08047
Δ F/F (conc. 0,003 mM): 0.00267
RLU (Time 0 s): 0 RLU
RLU (Time 2 s): -31.2125 RLU
RLU (Time 4 s): -43.6447 RLU
RLU (Time 6 s): -0.4257 RLU
RLU (Time 8 s): -5.711 RLU
RLU (Time 12 s): -13.8091 RLU
RLU (Time 14 s): -0.4257 RLU
RLU (Time 16 s): -0.5597 RLU
RLU (Time 18 s): 10.0299 RLU
RLU (Time 18.781 s): -3.913 RLU
RLU (Time 20.781 s): -28.6004 RLU
RLU (Time 22.781 s): -59.2077 RLU
RLU (Time 24.781 s): -17.5148 RLU
RLU (Time 26.781 s): 37.2224 RLU
RLU (Time 28.781 s): 99.9904 RLU
RLU (Time 30.781 s): 135.498 RLU
RLU (Time 32.781 s): 202.624 RLU
RLU (Time 34.781 s): 240.201 RLU
RLU (Time 36.781 s): 276.718 RLU
RLU (Time 38.781 s): 320.611 RLU
RLU (Time 40.781 s): 324.075 RLU
RLU (Time 42.781 s): 335.112 RLU
RLU (Time 44.781 s): 371.949 RLU
RLU (Time 46.781 s): 375.35 RLU
RLU (Time 48.781 s): 395.668 RLU
RLU (Time 50.781 s): 393.283 RLU
RLU (Time 52.781 s): 432.603 RLU
RLU (Time 54.781 s): 444.104 RLU
RLU (Time 56.781 s): 419.562 RLU
RLU (Time 58.781 s): 425.176 RLU
RLU (Time 60.781 s): 431.497 RLU
RLU (Time 62.781 s): 417.317 RLU
RLU (Time 64.781 s): 465.061 RLU
RLU (Time 66.781 s): 447.834 RLU
RLU (Time 68.781 s): 427.827 RLU
RLU (Time 70.781 s): 415.079 RLU
RLU (Time 72.781 s): 432.914 RLU
RLU (Time 74.781 s): 450.52 RLU
RLU (Time 76.781 s): 421.617 RLU
RLU (Time 78.781 s): 441.46 RLU
RLU (Time 80.781 s): 426.566 RLU
RLU (Time 82.781 s): 423.408 RLU
RLU (Time 84.781 s): 393.748 RLU
RLU (Time 86.781 s): 429.403 RLU
RLU (Time 88.781 s): 405.471 RLU
RLU (Time 90.781 s): 401.169 RLU
RLU (Time 92.781 s): 422.993 RLU
RLU (Time 94.781 s): 401.134 RLU
RLU (Time 96.781 s): 381.14 RLU
RLU (Time 98.781 s): 357.346 RLU
RLU (Time 100.781 s): 380.46 RLU
RLU (Time 102.781 s): 368.041 RLU
RLU (Time 104.781 s): 369.437 RLU
RLU (Time 106.781 s): 355.75 RLU
RLU (Time 108.781 s): 354.221 RLU
RLU (Time 110.781 s): 346.013 RLU
RLU (Time 112.781 s): 352.628 RLU
RLU (Time 114.781 s): 328.654 RLU
RLU (Time 116.781 s): 301.02 RLU
RLU (Time 118.781 s): 305.388 RLU
RLU (Time 120.781 s): 301.126 RLU
RLU (Time 122.781 s): 277.354 RLU
RLU (Time 124.781 s): 278.403 RLU
RLU (Time 126.781 s): 268.257 RLU
RLU (Time 128.781 s): 264.093 RLU
RLU (Time 130.781 s): 273.404 RLU
RLU (Time 132.781 s): 241.449 RLU
RLU (Time 134.781 s): 241.405 RLU
RLU (Time 136.781 s): 246.641 RLU
RLU (Time 137.562 s): 213.654 RLU
RLU (Time 143.562 s): 221.818 RLU
RLU (Time 149.562 s): 207.299 RLU
RLU (Time 155.562 s): 180.281 RLU
RLU (Time 161.562 s): 165.822 RLU
RLU (Time 167.562 s): 177.105 RLU
RLU (Time 173.562 s): 151.305 RLU
RLU (Time 179.562 s): 140.777 RLU
RLU (Time 185.562 s): 121.278 RLU
RLU (Time 191.562 s): 122.229 RLU
RLU (Time 197.562 s): 118.034 RLU
RLU (Time 203.562 s): 110.818 RLU
RLU (Time 209.562 s): 87.4457 RLU
RLU (Time 215.562 s): 107.926 RLU
RLU (Time 221.562 s): 45.9427 RLU
RLU (Time 227.562 s): 30.7626 RLU
RLU (Time 233.562 s): 60.9884 RLU
RLU (Time 239.562 s): 58.9568 RLU
RLU (Time 245.562 s): 54.3153 RLU
RLU (Time 293.562 s): 51.7559 RLU
RLU (Time 299.562 s): 74.5788 RLU
RLU (Time 305.562 s): 55.2043 RLU
RLU (Time 311.562 s): 49.25 RLU
RLU (Time 317.562 s): 60.65 RLU
RLU (Time 323.562 s): 55.6278 RLU
RLU (Time 329.562 s): 55.0836 RLU
RLU (Time 335.562 s): 69.3242 RLU
RLU (Time 341.562 s): 66.607 RLU
RLU (Time 347.562 s): 79.0246 RLU
RLU (Time 353.562 s): 84.7807 RLU
RLU (Time 359.562 s): 64.803 RLU
Activation threshold concentration Tas2r144 (p < 0.01 vs empty vector): 100 µM
Structure (SMILES): C[C@H](CCC(=O)NCC(=O)O)[C@H]1CC[C@H]2[C@@H]3[C@H](O)C[C@@H]4C[C@H](O)CC[C@]4(C)[C@H]3C[C@H](O)[C@]12C [Glycocholic Acid, glycocholic acid]
